Patent US8227245B2, “Multipotent stem cells from peripheral tissues and uses thereof” (McGill University, priority 2000, dated 2012)

Assays:
skin-derived MSCs [1] = assay: Pharmacological agents added to proliferating skin-derived MSCs (morphology, survival); assay type: cell-based, mouse; details: plated three days in proliferation medium containing FGF, medium supplemented with agent
Source text: FIG. 10 is a series of photographs showing the effect of various pharmacological agents on mouse skin-derived MSCs.
We tested the ability of pharmacological agents to alter this phenotype.

skin-derived MSCs [2] = assay: Endodermal marker expression of skin-derived MSCs by RT-PCR after plating with nicotinamide; assay type: cell-based; details: cells dissociated and plated in media supplemented with nicotinamide
Description: Skin-derived MSCs were cultured under standard proliferation conditions in the presence or absence of B-27 supplement. Differentiation was induced by plating cells in the presence of nicotinamide, and the resulting differentiated cells were analyzed by quantitative RT-PCR. […] Although cells proliferated in either the presence or the absence of B27 supplement can be induced to express endodermal markers, cells proliferated in B27 appear to express such markers to a higher degree.
Our recent discovery that MSCs maintain the potential to produce both neural and non-neural cell types has been accompanied by the discovery that non-neural stem cells such as bone marrow-derived stem cells (i.e., stromal cells or mesenchymal stem cells) also have the potential to produce a wide variety of neural and non-neural stem cells (Ferrari et al., Science 279:1528-1530, 1998; Gussoni et al., Nature 401:390-394, 1999; Peterson et al., Science 284:1168-1170, 1999; Pereira et al., Proc. Natl. Acad. Sci. USA 92:4857-4861, 1995; Prockop, Science 276:71-74, 1997; Kessler and Byrne, Annu. Rev. Physiol. 61:219-242, 1999; Pittenger et al., Science 284:143-147). […] After several days of co-culture the skin-derived stem cells were analyzed based on both morphology and on protein expression. […]

[3] = test system: skin-derived stem cells harvested from human foreskin; assay: Culture of human foreskin skin-derived stem cells in presence and absence of LIF; assay type: cell-based; details: proliferating non-adherent cultures with EGF and FGF2
Source text: In contrast to human central nervous system derived stem cells, the survival and proliferation of human skin-derived stem cells is not dependent on LIF.
We cultured the cell suspension, as previously described, in non-adherent vessels in the presence of EGF and FGF2. […] The clusters are morphologically indistinguishable from skin-derived stem cells derived from rodent tissue. Skin-derived clusters are loosely compacted, and the cells can be readily dissociated manually without the use of proteases. Such characteristics appear to distinguish skin-derived clusters from CNS-derived neurospheres. […] Furthermore, we have currently passaged and maintained foreskin derived stem cells as proliferating cultures for greater than three months.

skin derived MSCs = assay: Neuronal differentiation of skin-derived MSCs plated in 5% serum with added agent, anti-neurofilament immunocytochemistry; assay type: cell-based; details: 5% serum plus agent, compared with serum alone
Description: Cells were dissociated and plated in the presence of either 5% FBS, 5% FBS+retinoic acid (RA), or 5% FBS+BMP7. Cells were analyzed immunocytochemically for expression of neurofilament M (NFM).
Skin derived MSCs were obtained and cultured as described in detail above. To induce differentiation, cells were plated in the presence of 5% serum supplemented with either retinoic acid or BMP-7. Neuronal differentiation was analyzed using a polyclonal anti-neurofilament antibody.

Molecule: COc1cccc(-c2cc(=O)c3ccccc3o2)c1N [PD098059]
- effect on phenotype of proliferating skin-derived MSCs (skin-derived MSCs [1]): caused proliferating cells to flatten and differentiate

Molecule: C[S+]([O-])c1ccc(-c2nc(-c3ccncc3)c(-c3ccc(F)cc3)[nH]2)cc1 (centres unmarked) [SB203580]
- effect on phenotype of proliferating skin-derived MSCs (skin-derived MSCs [1]): no observed effect

Molecule: NC(=O)c1cccnc1 [nicotinamide]
- expression of endodermal markers (GATA-4, HNF3α, Isl1, AFP, HNF3β, Ngn3, Pdx-1, Insulin) (skin-derived MSCs [2]): express markers of endodermal differentiation

Molecule: LIF: cytokine added to culture medium (R&D Systems)
- proliferation, differentiation or survival characteristics in presence and absence of LIF [3]: no significant differences

B1: BMP-7: therapeutic protein (growth factor) added to 5% serum to induce differentiation (protein, UniProt P18075 293-431, looked up)
Bone morphogenetic protein 7: STGSKQRSQNRSKTPKNQEALRMANVAENSSSDQRQACKKHELYVSFRDLGWQDWIIAPEGYAAYYCEGECAFPLNSYMNATNHAIVQTLVHFINPETVPKPCCAPTQLNAISVLYFDDSSNVILKKYRNMVVRACGCH
- number and complexity of neurofilament positive cells (skin derived MSCs): enhances the number and complexity of neurofilament positive cells
